# Measurements as given in patent publication US12655174B2, “Adenosine A3 receptor agonists, preparation methods and uses thereof” (ZHEJIANG VIMGREEN PHARMACEUTICALS, LTD., priority 2020, dated 2026).
# Assay: Pharmacokinetic test of compound in SD rat
# Type: in vivo
# Conditions: SD rats, intragastric administration (IG), cassette dosing
# Description: Example 28: Pharmacokinetic Test of Compound in SD Rat
# The animal species used in this experiment were SD rats. There were 3 animals per group. The rats were dosed in cassette format, i.e., multiple (1-6) different compounds were dosed simultaneously to the same group of the SD rats. The vehicle used for the drug was 5% DMSO+5% Solutl+90% ([…] methylcellulose M450), and the administration route was intragastric administration (IG).
row,SMILES,AUC_D
1,"CNC(=O)[C@H]1O[C@@H](n2cnc3c(NCc4cccc(OC)c4)nc(-c4cncc(Cl)c4)nc32)[C@H](O)[C@@H]1O (stereo in doubt) [compound 213, (2S,3S,4R,5S)-5-(2-(5-chloropyridin-3-yl)-6-((3-methoxybenzyl)amino)-9/-purin-9-yl)-3,4-dihydroxyl-N-methyltetrahydrofuran-2-carboxamide]",360.90 kg·ng·h/mL/mg
2,"[2H]C([2H])([2H])NC(=O)[C@H]1O[C@@H](n2cnc3c(NCc4cccc(I)c4)ncnc32)[C@H](O)[C@@H]1O [compound 1, (2S,3S,4R,5R)-5-(6-(3-iodobenzylamino)-9H-purin-9-yl)-3,4-dihydroxyl-N-(methyl-d3)-tetrahydrofuran-2-formamide]",343.50 kg·ng·h/mL/mg
3,"CONC(=O)[C@H]1O[C@@H](n2cnc3c(NCc4cccc(I)c4)ncnc32)[C@H](O)[C@@H]1O [compound 3, (2S,3S,4R,5R)-5-(6-(3-iodobenzylamino)-9H-purin-9-yl)-3,4-dihydroxyl-N-methoxy-tetrahydrofuran-2-formamide]",152.40 kg·ng·h/mL/mg
4,"[2H]C([2H])([2H])NC(=O)[C@H]1O[C@@H](n2cnc3c(NCc4ccccc4)nc(-c4cccnc4)nc32)[C@H](O)[C@@H]1O [compound 10, (2S,3S,4R,5R)-5-(6-(benzylamino)-2-(pyridin-3-yl)-9H-purin-9-yl)-3,4-dihydroxyl-N-(methyl-d3)-tetrahydrofuran-2-formamide]",146.00 kg·ng·h/mL/mg
5,"[2H]C([2H])([2H])NC(=O)[C@H]1O[C@@H](n2cnc3c(NCc4ccccc4)nc(-c4ccoc4)nc32)[C@H](O)[C@@H]1O [compound 11, (2S,3S,4R,5R)-5-(6-(benzylamino)-2-(furan-3-yl)-9H-purin-9-yl)-3,4-dihydroxyl-N-(methyl-d3)-tetrahydrofuran-2-formamide]",174.00 kg·ng·h/mL/mg
6,"[2H]C([2H])([2H])NC(=O)[C@H]1O[C@@H](n2cnc3c(NCc4ccccc4)nc(-c4ccco4)nc32)[C@H](O)[C@@H]1O [compound 12, (2S,3S,4R,5R)-5-(6-(benzylamino)-2-(furan-2-yl)-9H-purin-9-yl)-3,4-dihydroxyl-N-(methyl-d3)-tetrahydrofuran-2-formamide]",79.00 kg·ng·h/mL/mg
7,"[2H]C([2H])([2H])NC(=O)[C@H]1O[C@@H](n2cnc3c(NCc4ccccc4)nc(-c4cncc(Cl)c4)nc32)[C@H](O)[C@@H]1O [compound 15, (2S,3S,4R,5R)-5-(6-(benzylamino)-2-(5-chloropyridin-3-yl)-9H-purin-9-yl)-3,4-dihydroxyl-N-(methyl-d3)-tetrahydrofuran-2-formamide]",807.78 kg·ng·h/mL/mg
8,"[2H]C([2H])([2H])NC(=O)[C@H]1O[C@@H](n2cnc3c(NCc4ccccc4)nc(-c4cncc(C)c4)nc32)[C@H](O)[C@@H]1O [compound 16, (2S,3S,4R,5R)-5-(6-(benzylamino)-2-(5-methylpyridin-3-yl)-9H-purin-9-yl)-3,4-dihydroxyl-N-(methyl-d3)-tetrahydrofuran-2-formamide]",1291.00 kg·ng·h/mL/mg
9,"[2H]C([2H])([2H])NC(=O)[C@H]1O[C@@H](n2cnc3c(NCc4ccccc4)nc(-c4cnc(C)c(C)c4)nc32)[C@H](O)[C@@H]1O [compound 17, (2S,3S,4R,5R)-5-(6-(benzylamino)-2-(5,6-dimethylpyridin-3-yl)-9/-purin-9-yl)-3,4-dihydroxyl-N-(methyl-d3)-tetrahydrofuran-2-formamide]",168.00 kg·ng·h/mL/mg
10,"[2H]C([2H])([2H])NC(=O)[C@H]1O[C@@H](n2cnc3c(NCc4ccccc4)nc(-c4cncc(C#N)c4)nc32)[C@H](O)[C@@H]1O [compound 19, (2S,3S,4R,5R)-5-(6-(benzylamino)-2-(5-cyanopyridin-3-yl)-9H-purin-9-yl)-3,4-dihydroxyl-N-(methyl-d3)-tetrahydrofuran-2-formamide]",74.00 kg·ng·h/mL/mg
11,"[2H]C([2H])([2H])NC(=O)[C@H]1O[C@@H](n2cnc3c(NCc4ccccc4)nc(-c4cncc(F)c4)nc32)[C@H](O)[C@@H]1O [compound 32, (2S,3S,4R,5R)-5-(6-(benzylamino)-2-(5-fluoropyridin-3-yl)-9H-purin-9-yl)-3,4-dihydroxyl-N-(methyl-d3)-tetrahydrofuran-2-formamide]",1384.00 kg·ng·h/mL/mg
12,"[2H]C([2H])([2H])NC(=O)[C@H]1O[C@@H](n2cnc3c(NCc4ccccc4)nc(-c4cncc(OC)c4)nc32)[C@H](O)[C@@H]1O [compound 33, (2S,3S,4R,5R)-5-(6-(benzylamino)-2-(5-methoxypyridin-3-yl)-9H-purin-9-yl)-3,4-dihydroxyl-N-(methyl-d3)-tetrahydrofuran-2-formamide]",1578.00 kg·ng·h/mL/mg
13,"[2H]C([2H])([2H])NC(=O)[C@H]1O[C@@H](n2cnc3c(NCc4ccccc4)nc(-c4cncc(CC)c4)nc32)[C@H](O)[C@@H]1O [compound 34, (2S,3S,4R,5R)-5-(6-(benzylamino)-2-(5-ethylpyridin-3-yl)-9H-purin-9-yl)-3,4-dihydroxyl-N-(methyl-d3)-tetrahydrofuran-2-formamide]",578.00 kg·ng·h/mL/mg
14,"CCNC(=O)[C@H]1O[C@@H](n2cnc3c(NC)nc(-c4ccc(OC)nc4)nc32)[C@H](O)[C@@H]1O [compound 58, (2S,3S,4R,5R)-N-ethyl-3,4-dihydroxyl-5-(2-(6-methoxypyridin-3-yl)-6-(methylamino)-9H-purin-9-yl)tetrahydrofuran-2-carboxamide]",110.00 kg·ng·h/mL/mg
15,"CNC(=O)[C@H]1O[C@@H](n2cnc3c(NCc4ccccn4)nc(-c4cncc(C)c4)nc32)[C@H](O)[C@@H]1O [compound 69, (2S,3S,4R,5R)-3,4-dihydroxyl-N-methyl-5-(2-(5-methylpyridin-3-yl)-6-((pyridin-2-ylmethyl)amino)-9H-purin-9-yl)tetrahydrofuran-2-carboxamide]",360.90 kg·ng·h/mL/mg
16,"CCNC(=O)[C@H]1O[C@@H](n2cnc3c(NC)nc(-c4ccoc4)nc32)[C@H](O)[C@@H]1O [compound 74, (2S,3S,4R,5R)-N-ethyl-5-(2-(furan-3-yl)-6-(methylamino)-9H-purin-9-yl)-3,4-dihydroxyltetrahydrofuran-2-carboxamide]",213.00 kg·ng·h/mL/mg
17,"CCNC(=O)[C@H]1O[C@@H](n2cnc3c(NC)nc(-c4ccsc4)nc32)[C@H](O)[C@@H]1O [compound 77, (2S,3S,4R,5R)-N-ethyl-3,4-dihydroxyl-5-(6-(methylamino)-2-(thiophen-3-yl)-9H-purin-9-yl)tetrahydrofuran-2-carboxamide]",81.00 kg·ng·h/mL/mg
18,"[2H]C([2H])([2H])NC(=O)[C@H]1O[C@@H](n2cnc3c(NC([2H])([2H])[2H])nc(-c4ccoc4)nc32)[C@H](O)[C@@H]1O [compound 97, (2S,3S,4R,5R)-5-(2-(furan-3-yl)-6-((methyl-d3)amino)-9H-purin-9-yl)-3,4-dihydroxyl-N-(methyl-d)tetrahydrofuran-2-carboxamide]",115.00 kg·ng·h/mL/mg
19,"CNC(=O)[C@H]1O[C@@H](n2cnc3c(NCc4ccccc4)nc(-c4cccnc4)nc32)[C@H](O)[C@@H]1O [compound 110, (2S,3S,4R,5R)-5-(6-(benzylamino)-2-(pyridin-3-yl)-9H-purin-9-yl)-3,4-dihydroxyl-N-methyltetrahydrofuran-2-carboxamide]",276.50 kg·ng·h/mL/mg
20,"CNC(=O)[C@H]1O[C@@H](n2cnc3c(NCc4ccccc4)nc(-c4cncc(C)c4)nc32)[C@H](O)[C@@H]1O [compound 118, (2S,3S,4R,5R)-5-(6-(benzylamino)-2-(5-methylpyridin-3-yl)-9H-purin-9-yl)-3,4-dihydroxyl-N-methyltetrahydrofuran-2-carboxamide]",347.00 kg·ng·h/mL/mg
21,"CNC(=O)[C@H]1O[C@@H](n2cnc3c(NCc4ccccc4)nc(-c4ccc(C)nc4)nc32)[C@H](O)[C@@H]1O [compound 120, (2S,3S,4R,5R)-5-(6-(benzylamino)-2-(6-methylpyridin-3-yl)-9H-purin-9-yl)-3,4-dihydroxyl-N-methyltetrahydrofuran-2-carboxamide]",86.00 kg·ng·h/mL/mg
22,"CNC(=O)[C@H]1O[C@@H](n2cnc3c(NCc4ccccc4)nc(-c4ccc(F)c(F)c4)nc32)[C@H](O)[C@@H]1O [compound 143, (2S,3S,4R,5R)-5-(6-(benzylamino)-2-(3,4-difluorophenyl)-9H-purin-9-yl)-3,4-dihydroxyl-N-methyltetrahydrofuran-2-carboxamide]",80.00 kg·ng·h/mL/mg
23,"CNC(=O)[C@H]1O[C@@H](n2cnc3c(NCc4ccccc4)nc(-c4ccoc4)nc32)[C@H](O)[C@@H]1O [compound 149, (2S,3S,4R,5R)-5-(6-(benzylamino)-2-(furan-3-yl)-9H-purin-9-yl)-3,4-dihydroxyl-N-methyltetrahydrofuran-2-carboxamide]",337.00 kg·ng·h/mL/mg
24,"CNC(=O)[C@H]1O[C@@H](n2cnc3c(NCc4ccccc4)nc(-c4cncc(Cl)c4)nc32)[C@H](O)[C@@H]1O [compound 150, (2S,3S,4R,5R)-5-(6-(benzylamino)-2-(5-chloropyridin-3-yl)-9H-purin-9-yl)-3,4-dihydroxyl-N-methyltetrahydrofuran-2-carboxamide]",1821.60 kg·ng·h/mL/mg
25,"CNC(=O)[C@H]1O[C@@H](n2cnc3c(NCc4ccccc4)nc(-c4ccsc4)nc32)[C@H](O)[C@@H]1O [compound 151, (2S,3S,4R,5R)-5-(6-(benzylamino)-2-(thiophen-3-yl)-9H-purin-9-yl)-3,4-dihydroxyl-N-methyltetrahydrofuran-2-carboxamide]",89.00 kg·ng·h/mL/mg
